The values below come from patent US20150045367A1, “CINNAMIC ACID HYDROXYAMIDES AS INHIBITORS OF HISTONE DEACETYLASE 8” (PHARMACYCLICS, INC., priority 2011, published 2015).

One may read the IC50 as the concentration at which inhibition is half-maximal. A high value points to a need for much substance. Broadly, the GI50 is the concentration at which growth is held to half of that of the control.

For one assay, the target named is HDAC1 (Homo sapiens, UniProt Q13547). Nature of the assay: Histone deacetylase activity, continuous trypsin-coupled assay. It counts as biochemical. Conditions: trypsin-coupled fluorescence assay, acetyl-Gly-Ala-(N-acetyl-Lys)-AMC substrate. Here is the method: (§1) HDAC activity is measured using a continuous trypsin-coupled assay that has been described in detail previously (US 20070281934; Schultz et. al., Biochemistry, 43 (34), 11083-11091, 2004; Kim et al. (2006), Methods Mol. Biol., 325:273-283). For inhibitor characterization, measurements are performed in a reaction volume of 100 µL using 96-well assay plates in a fluorescence plate reader. For each isozyme, the HDAC protein in reaction buffer (50 mM HEPES, 100 mM KCl, 0.001% Tween-20, 5% DMSO, pH 7.4, supplemented with bovine serum albumin at concentrations of 0-0.05%, is mixed with inhibitor at various concentrations and allowed to incubate for 15 minutes. Trypsin is added to a final concentration of 50 nM, and acetyl-Gly-Ala-(N-acetyl-Lys)-AMC is added to a final concentration of 25-100 μM to initiate the reaction. After a 30 minute lag time, the fluorescence is measured over a 30 minute time frame using an excitation wavelength of 355 nm and a detection wavelength of 460 nm. The increase in fluorescence with time is used as the measure of the reaction rate. Inhibition constants Ki(app) were obtained using the program BatchKi (Biokin, Pullman, Wash.).

The target of a further assay is T1, HDAC6 (Homo sapiens, UniProt Q9UBN7).
T1 sequence (Q9UBN7 1-1215): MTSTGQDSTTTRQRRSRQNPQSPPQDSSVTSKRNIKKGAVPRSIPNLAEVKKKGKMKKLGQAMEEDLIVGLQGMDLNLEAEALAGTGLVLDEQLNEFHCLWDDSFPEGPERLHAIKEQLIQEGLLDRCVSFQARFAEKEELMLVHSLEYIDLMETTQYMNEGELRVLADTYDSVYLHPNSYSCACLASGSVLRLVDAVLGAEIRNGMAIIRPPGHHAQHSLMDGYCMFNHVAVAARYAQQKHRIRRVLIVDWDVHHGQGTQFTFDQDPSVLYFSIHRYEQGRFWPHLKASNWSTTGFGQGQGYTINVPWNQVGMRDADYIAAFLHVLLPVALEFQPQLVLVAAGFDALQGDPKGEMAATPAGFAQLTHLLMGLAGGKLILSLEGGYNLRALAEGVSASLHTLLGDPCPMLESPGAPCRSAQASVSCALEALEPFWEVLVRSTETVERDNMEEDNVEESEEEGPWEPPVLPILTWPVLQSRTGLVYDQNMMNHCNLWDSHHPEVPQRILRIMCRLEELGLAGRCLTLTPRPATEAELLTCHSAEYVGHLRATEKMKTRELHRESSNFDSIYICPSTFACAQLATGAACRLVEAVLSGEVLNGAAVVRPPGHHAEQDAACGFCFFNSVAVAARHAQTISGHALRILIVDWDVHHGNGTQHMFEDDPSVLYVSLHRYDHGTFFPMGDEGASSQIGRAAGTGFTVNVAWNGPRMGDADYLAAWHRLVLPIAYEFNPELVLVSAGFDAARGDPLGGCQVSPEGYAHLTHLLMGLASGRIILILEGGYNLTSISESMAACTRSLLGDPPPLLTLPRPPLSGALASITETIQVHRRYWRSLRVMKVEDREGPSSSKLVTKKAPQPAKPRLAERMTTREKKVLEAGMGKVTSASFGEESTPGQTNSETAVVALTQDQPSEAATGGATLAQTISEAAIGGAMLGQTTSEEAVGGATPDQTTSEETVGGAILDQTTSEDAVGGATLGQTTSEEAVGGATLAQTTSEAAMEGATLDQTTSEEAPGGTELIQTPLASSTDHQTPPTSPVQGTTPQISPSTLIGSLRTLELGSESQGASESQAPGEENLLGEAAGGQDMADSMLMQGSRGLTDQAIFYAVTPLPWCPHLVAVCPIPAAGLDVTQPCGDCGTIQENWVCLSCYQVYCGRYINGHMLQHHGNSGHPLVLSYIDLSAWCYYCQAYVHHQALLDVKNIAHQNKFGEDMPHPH
The assay is described as above. Conditions: trypsin-coupled fluorescence assay, acetyl-Gly-Ala-(N-acetyl-Lys)-AMC substrate. The assay is classed as biochemical. Here is the method: as §1

The target in a further assay is T2, HDAC8 (Homo sapiens, UniProt Q9BY41).
T2 sequence (Q9BY41 1-377): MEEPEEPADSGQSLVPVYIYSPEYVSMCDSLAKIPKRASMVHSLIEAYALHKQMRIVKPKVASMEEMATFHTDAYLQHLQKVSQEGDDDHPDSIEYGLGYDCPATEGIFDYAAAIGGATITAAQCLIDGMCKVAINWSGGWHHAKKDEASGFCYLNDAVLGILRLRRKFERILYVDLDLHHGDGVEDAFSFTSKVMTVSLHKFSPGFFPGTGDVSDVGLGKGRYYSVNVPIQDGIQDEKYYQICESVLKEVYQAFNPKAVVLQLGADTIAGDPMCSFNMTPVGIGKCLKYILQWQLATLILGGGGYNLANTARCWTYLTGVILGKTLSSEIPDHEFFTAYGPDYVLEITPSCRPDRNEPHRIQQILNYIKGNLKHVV
The description is as above. It counts as biochemical. Conditions: trypsin-coupled fluorescence assay, acetyl-Gly-Ala-(N-acetyl-Lys)-AMC substrate. On the procedure: as §1

A further assay has as its system Jurkat cells. Kind of assay: Cell proliferation assay, growth inhibition by Alamar Blue. It counts as cell-based. Conditions: Homo sapiens, 72 h, treated with compound for 3 days. On the procedure:
Cell lines are obtained from DSMZ (Braunschweig, Germany) or ATCC (Manassas, Va.). Cells are grown in RPMI 1640 with 10% fetal bovine serum in a 5% CO2/air incubator at 37° C. Thapsigargin and BAPTA-AM are from Calbiochem (San Diego, Calif.). 3-((dimethylamino)methyl)-N-(2-(4-(hydroxycarbamoyl)phenoxy)ethyl)benzofuran-2-carboxamide is a broad-spectrum HDAC inhibitor which was synthesized as previously described. Other analogs with varying degrees of specificity towards the HDAC isoforms are synthesized as described herein.
Tumor cell lines and human umbilical vein endothelial cells (HUVEC) are cultured for at least two doubling times, and growth is monitored at the end of compound exposure using an Alamar Blue™ (Biosource, Camarillo, Calif.) fluorometric cell proliferation assay as recommended by the manufacturer. Compounds are assayed in triplicate wells in 96-well plates. The concentration required to inhibit cell growth by 50% (GI50) and 95% confidence intervals are estimated from nonlinear regression using a 4-parameter logistic equation. The effect of HDAC8 selective inhibitor compounds on cell proliferation in Jurkat cells is measured. Apoptosis is measured by Annexin-V flow cytommetry. Growth inhibiton iss measured by Alamar Blue assay. Cells are treated with compound for 3 days.
Background: Resazurin is reduced to fluorescent resorufin, in cell work by metabolically active cells.

Sequence of HDAC1 (Q13547 whole entry): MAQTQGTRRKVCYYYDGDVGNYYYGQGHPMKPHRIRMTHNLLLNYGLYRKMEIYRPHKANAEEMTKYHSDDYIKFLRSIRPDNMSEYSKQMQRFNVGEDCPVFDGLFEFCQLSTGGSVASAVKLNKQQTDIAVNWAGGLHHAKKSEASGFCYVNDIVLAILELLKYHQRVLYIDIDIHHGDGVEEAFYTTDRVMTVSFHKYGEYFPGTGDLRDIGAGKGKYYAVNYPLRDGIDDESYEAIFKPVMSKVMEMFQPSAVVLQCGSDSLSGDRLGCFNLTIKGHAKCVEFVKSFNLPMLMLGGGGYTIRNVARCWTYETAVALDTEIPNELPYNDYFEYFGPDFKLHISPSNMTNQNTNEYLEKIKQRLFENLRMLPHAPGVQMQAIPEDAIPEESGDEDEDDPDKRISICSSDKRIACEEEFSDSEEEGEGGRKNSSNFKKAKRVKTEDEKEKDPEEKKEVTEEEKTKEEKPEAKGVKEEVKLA

Consider `O=C(/C=C/c1ccccc1OC1CCN(C(=O)c2ccccc2)CC1)NO` [Compound 20, (E)-3-(2-(1-benzoylpiperidin-4-yloxy)phenyl)-N-hydroxyacrylamide], for which the concentration for half-maximal inhibition (IC50) on HDAC1 was 1 to 10 µM; against HDAC6, 1 to 10 µM; against HDAC8 it was not above 0.1 µM. Moreover, the GI50 in the assay on Jurkat cells was found to be 9.7 µM.
